The target in one data set is T1, human orexin 2 receptor (Homo sapiens, UniProt O43614).
T1 construct: stably expressing the full-length human orexin 2 receptor; expressed in transfected cells; host or cells: CHO-K1 (CHO-K1/hOX2), co-expressing aequorin
T1 sequence (O43614 1-444): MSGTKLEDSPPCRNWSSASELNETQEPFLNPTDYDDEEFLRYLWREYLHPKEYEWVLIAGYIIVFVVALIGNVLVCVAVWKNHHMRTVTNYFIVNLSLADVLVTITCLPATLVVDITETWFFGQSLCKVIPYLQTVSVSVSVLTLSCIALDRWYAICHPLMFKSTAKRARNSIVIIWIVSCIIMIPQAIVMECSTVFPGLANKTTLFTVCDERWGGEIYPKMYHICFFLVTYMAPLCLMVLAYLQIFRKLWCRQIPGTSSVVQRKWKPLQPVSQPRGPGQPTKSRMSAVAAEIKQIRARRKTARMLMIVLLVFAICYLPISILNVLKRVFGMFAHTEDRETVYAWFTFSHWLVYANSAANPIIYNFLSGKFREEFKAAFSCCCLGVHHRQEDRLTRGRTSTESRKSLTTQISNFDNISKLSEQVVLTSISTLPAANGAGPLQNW
The data set can be described thus: Assay B: In vitro testing of OX2R potency: OX2R IP1 (HTRF, CHO-K1/hOX2 cells, Orexin A as agonist). It counts as cell-based. To be noted: Orexin A 0.5 nM. The essentials:
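Kb was derived from IC50 (4-parameter fit) by correcting for agonist level, using IP1 accumulation read by HTRF 665/615 ratio. Stimulus: 0.5 nM Orexin A for 60 min at 37 °C, following 15 min compound preincubation (8 points, 1% DMSO, LiCl-containing buffer pH 7.4) on hOX2R-expressing CHO-K1 cells.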
On to `CCN(C(=O)c1cccc(F)c1-n1nccn1)[C@@H](C)COc1ccc(Cl)cn1` [Example 114], for which the Kb stood at 54 nM.

The molecule `CCN(C(=O)c1c(-n2nccn2)ccc(C)c1F)[C@@H](C)COc1ncc(C(F)(F)F)cc1F` [Example 127] gave a Kb of 49 nM.

Regarding `CCN(C(=O)c1c(F)cccc1-n1nccn1)[C@@H](C)COc1ccc(C(F)(F)F)cn1` [Example 94], the Kb was 78 nM.

With `CCN(C(=O)c1cccc(F)c1-n1nccn1)[C@@H](C)COc1ncc(C(F)(F)F)cc1F` [Example 113], the Kb was found to be 69 nM.

As for `CCN(C(=O)c1ccc(C#N)cc1-n1nccn1)[C@@H](C)COc1ncc(C(F)(F)F)cc1F` [Example 69], the Kb was determined as 4340 nM.

Take `CCN(C(=O)c1ccc(F)cc1-c1ncccn1)[C@@H](C)COc1ccc(C(F)(F)F)cn1` [Example 108]: the Kb is 45 nM.

For the molecule `CCN(C(=O)c1ccccc1-c1ccn(C)c(=O)c1)[C@@H](C)COc1ccc(C(F)(F)F)cn1` [Example 81], the Kb was 1670 nM.

For the molecule `CCN(C(=O)c1cccc(C)c1-c1nnc(C)o1)[C@@H](C)COc1ncc(C(F)(F)F)cc1F` [Example 64], the Kb was found to be 155 nM.

For the molecule `CCN(C(=O)c1cc(OC)ccc1-n1nccn1)[C@@H](C)COc1ccc(Cl)cn1` [Example 33], the Kb turned out to be 33 nM.

Molecule `CCN(C(=O)c1ccccc1-c1nnc(C)o1)[C@@H](C)COc1ncc(C(F)(F)F)cc1F` [Example 68] showed a Kb of 1000 nM.

In the case of `CCN(C(=O)c1ccccc1-c1noc(C)n1)[C@@H](C)COc1ccc(C(F)(F)F)cn1` [Example 123], the Kb amounted to 34 nM.

Tested on in a further data set: not listed separately
The data set can be described thus: Assay C: Metabolic stability in human liver microsomes (Human MST). The data set is classed as in vitro ADME. The following applies: pooled human liver microsomes, pH 7.6; human liver microsomes 1 mg/mL, compound 1 μM, 37° C., NADPH; read-out: Human MST t1/2. A digest of the protocol:
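Test compound (1 μM) was incubated at 37 °C with pooled human liver microsomes (1 mg/mL protein) in 0.1 M TRIS pH 7.6 with 5 mM MgCl2, and reactions were started with 1 mM NADPH. Aliquots were quenched at several time points and parent compound was quantified by LC-MS/MS. t1/2 came from the slope of the semi-log concentration–time plot.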
On to `CCN(C(=O)c1cccc(F)c1-n1nccn1)[C@@H](C)COc1ccc(Cl)cn1` [Example 114], for which the half-life at 1 μM amounted to 110 min.

With `CCN(C(=O)c1c(-n2nccn2)ccc(C)c1F)[C@@H](C)COc1ncc(C(F)(F)F)cc1F` [Example 127], the half-life at 1 μM was found to be 15 min.

Turning to `CCN(C(=O)c1c(F)cccc1-n1nccn1)[C@@H](C)COc1ccc(C(F)(F)F)cn1` [Example 94], the half-life at 1 μM is 31 min.

Take `CCN(C(=O)c1cccc(F)c1-n1nccn1)[C@@H](C)COc1ncc(C(F)(F)F)cc1F` [Example 113]: the half-life at 1 μM is 95 min.

Consider `CCN(C(=O)c1ccc(C#N)cc1-n1nccn1)[C@@H](C)COc1ncc(C(F)(F)F)cc1F` [Example 69], for which the half-life at 1 μM came out at 43 min.

With `CCN(C(=O)c1ccc(F)cc1-c1ncccn1)[C@@H](C)COc1ccc(C(F)(F)F)cn1` [Example 108], the half-life at 1 μM stood at 50 min.

Consider `CCN(C(=O)c1ccccc1-c1ccn(C)c(=O)c1)[C@@H](C)COc1ccc(C(F)(F)F)cn1` [Example 81], for which the half-life at 1 μM turned out to be 39 min.

With `CCN(C(=O)c1cccc(C)c1-c1nnc(C)o1)[C@@H](C)COc1ncc(C(F)(F)F)cc1F` [Example 64], the half-life at 1 μM is 15 min.

Regarding `CCN(C(=O)c1cc(OC)ccc1-n1nccn1)[C@@H](C)COc1ccc(Cl)cn1` [Example 33], the half-life at 1 μM turned out to be 20 min.

With `CCN(C(=O)c1ccccc1-c1nnc(C)o1)[C@@H](C)COc1ncc(C(F)(F)F)cc1F` [Example 68], the half-life at 1 μM amounted to 53 min.

As to `CCN(C(=O)c1ccccc1-c1noc(C)n1)[C@@H](C)COc1ccc(C(F)(F)F)cn1` [Example 123], the half-life at 1 μM is 23 min.

In the next data set the target is T2, human Orexin 1 receptor (Homo sapiens, UniProt O43613).
T2 construct: stably expressing the full-length human Orexin 1 receptor; expressed in transfected cells; host or cells: CHO-K1 (CHO-K1/hOX1), co-expressing aequorin
T2 sequence (O43613 1-425): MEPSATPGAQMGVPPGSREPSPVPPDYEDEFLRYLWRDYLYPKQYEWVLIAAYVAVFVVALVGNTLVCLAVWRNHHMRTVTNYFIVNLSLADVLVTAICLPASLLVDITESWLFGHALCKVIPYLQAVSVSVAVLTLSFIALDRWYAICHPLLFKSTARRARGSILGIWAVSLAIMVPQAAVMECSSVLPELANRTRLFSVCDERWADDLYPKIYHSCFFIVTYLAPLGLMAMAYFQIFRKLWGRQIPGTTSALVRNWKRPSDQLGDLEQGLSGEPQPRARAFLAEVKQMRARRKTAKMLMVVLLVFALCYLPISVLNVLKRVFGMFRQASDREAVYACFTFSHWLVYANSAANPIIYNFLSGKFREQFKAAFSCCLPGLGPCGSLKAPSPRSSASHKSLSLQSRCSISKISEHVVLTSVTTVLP
The data set can be described thus: Assay A: In vitro testing of OX1R potency: OX1R IP1 (HTRF, CHO-K1/hOX1 cells, Orexin A as agonist). It counts as cell-based. The following applies: OX1R Kb at 0.5 nM Orexin A. For orientation: TR-FRET usually uses a lanthanide donor and a delayed reading to cut background.
Regarding `CCN(C(=O)c1cccc(F)c1-n1nccn1)[C@@H](C)COc1ccc(Cl)cn1` [Example 114], the “OX2R Kb/OX1R Kb” value was 92.

As for `CCN(C(=O)c1cccc(F)c1-n1nccn1)[C@@H](C)COc1ncc(C(F)(F)F)cc1F` [Example 113], the “OX2R Kb/OX1R Kb” value was found to be 173.

Regarding `CCN(C(=O)c1ccc(C#N)cc1-n1nccn1)[C@@H](C)COc1ncc(C(F)(F)F)cc1F` [Example 69], the “OX2R Kb/OX1R Kb” value is on record as 136.

Turning to `CCN(C(=O)c1ccccc1-c1ccn(C)c(=O)c1)[C@@H](C)COc1ccc(C(F)(F)F)cn1` [Example 81], the “OX2R Kb/OX1R Kb” value is reported as 575.

On to `CCN(C(=O)c1ccccc1-c1nnc(C)o1)[C@@H](C)COc1ncc(C(F)(F)F)cc1F` [Example 68], for which the “OX2R Kb/OX1R Kb” value stood at 527.

The same data set, now with this note: OX1R Kb at 50 nM Orexin A.
As for `CCN(C(=O)c1cccc(F)c1-n1nccn1)[C@@H](C)COc1ccc(Cl)cn1` [Example 114], the “OX2R Kb/OX1R Kb” value is 98.

As to `CCN(C(=O)c1c(-n2nccn2)ccc(C)c1F)[C@@H](C)COc1ncc(C(F)(F)F)cc1F` [Example 127], the “OX2R Kb/OX1R Kb” value came out at 377.

As for `CCN(C(=O)c1c(F)cccc1-n1nccn1)[C@@H](C)COc1ccc(C(F)(F)F)cn1` [Example 94], the “OX2R Kb/OX1R Kb” value turned out to be 211.

For `CCN(C(=O)c1ccc(F)cc1-c1ncccn1)[C@@H](C)COc1ccc(C(F)(F)F)cn1` [Example 108], the “OX2R Kb/OX1R Kb” value was determined as 409.

Consider `CCN(C(=O)c1cccc(C)c1-c1nnc(C)o1)[C@@H](C)COc1ncc(C(F)(F)F)cc1F` [Example 64], for which the “OX2R Kb/OX1R Kb” value amounted to 705.

Consider `CCN(C(=O)c1cc(OC)ccc1-n1nccn1)[C@@H](C)COc1ccc(Cl)cn1` [Example 33], for which the “OX2R Kb/OX1R Kb” value was found to be 236.

Regarding `CCN(C(=O)c1ccccc1-c1noc(C)n1)[C@@H](C)COc1ccc(C(F)(F)F)cn1` [Example 123], the “OX2R Kb/OX1R Kb” value is given as 200.

Staying with this data set, now noted: Orexin A 0.5 nM; read-out: OX1R Kb (Orexin A concentration used).
As to `CCN(C(=O)c1cccc(F)c1-n1nccn1)[C@@H](C)COc1ccc(Cl)cn1` [Example 114], the Kb amounted to 0.59 nM.

With `CCN(C(=O)c1cccc(F)c1-n1nccn1)[C@@H](C)COc1ncc(C(F)(F)F)cc1F` [Example 113], the Kb was found to be 0.4 nM.

With `CCN(C(=O)c1ccc(C#N)cc1-n1nccn1)[C@@H](C)COc1ncc(C(F)(F)F)cc1F` [Example 69], the Kb came to 32 nM.

Regarding `CCN(C(=O)c1ccccc1-c1ccn(C)c(=O)c1)[C@@H](C)COc1ccc(C(F)(F)F)cn1` [Example 81], the Kb was determined as 2.9 nM.

Regarding `CCN(C(=O)c1ccccc1-c1nnc(C)o1)[C@@H](C)COc1ncc(C(F)(F)F)cc1F` [Example 68], the Kb came out at 1.9 nM.

The data set is the same for the next values; noted with them: Orexin A 50 nM; read-out: OX1R Kb (Orexin A concentration used).
`CCN(C(=O)c1cccc(F)c1-n1nccn1)[C@@H](C)COc1ccc(Cl)cn1` [Example 114]: the Kb was 0.55 nM.

As to `CCN(C(=O)c1c(-n2nccn2)ccc(C)c1F)[C@@H](C)COc1ncc(C(F)(F)F)cc1F` [Example 127], the Kb was 0.13 nM.

Turning to `CCN(C(=O)c1c(F)cccc1-n1nccn1)[C@@H](C)COc1ccc(C(F)(F)F)cn1` [Example 94], the Kb was determined as 0.37 nM.

Take `CCN(C(=O)c1ccc(F)cc1-c1ncccn1)[C@@H](C)COc1ccc(C(F)(F)F)cn1` [Example 108]: the Kb turned out to be 0.11 nM.

In the case of `CCN(C(=O)c1cccc(C)c1-c1nnc(C)o1)[C@@H](C)COc1ncc(C(F)(F)F)cc1F` [Example 64], the Kb amounted to 0.22 nM.

Consider `CCN(C(=O)c1cc(OC)ccc1-n1nccn1)[C@@H](C)COc1ccc(Cl)cn1` [Example 33], for which the Kb amounted to 0.14 nM.

Consider `CCN(C(=O)c1ccccc1-c1noc(C)n1)[C@@H](C)COc1ccc(C(F)(F)F)cn1` [Example 123], for which the Kb turned out to be 0.17 nM.

Source of the values: US10787432B2, “N-[(pyridyloxy)propanyl]benzamides” (Boehringer Ingelheim International GmbH, priority 2016, dated 2020).
